Key:
[1] = test system: crabgrass; test: Test A crabgrass; assay type: in vivo, Digitaria spp.; conditions: 0 to 10 scale where 0 is no effect and 10 is complete control
Method: Seeds of barnyardgrass (Echinochloa crus-galli), crabgrass (Digitaria spp.), morningglory (Ipomoea spp.), and velvetleaf (Abutilon theophrasti) were planted into a sandy loam soil and treated preemergence by soil drench with test chemicals formulated in a non-phytotoxic solvent mixture which includes a surfactant At the same time, these crop and weed species were also treated postemergence sprayed to runoff, with test chemicals formulated in the same manner.
Plants ranged in height from two to eighteen cm and were in the one to two leaf stage for the postemergence treatment. Treated plants and untreated controls were maintained in a greenhouse for approximately eleven days, after which all treated plants were compared to untreated controls and visually evaluated for injury. Plant response ratings, summarized in Table A, are based on a 0 to 10 scale where 0 is no effect and 10 is complete control.

[2] = test system: cocklebur; test: Test C postemergence cocklebur; assay type: in vivo, Xanthium strumarium; conditions: 0 to 100 scale, 0 no effect, 100 complete control
How it was run: (§1)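 Visual ratings on a 0 to 100 scale, where 0 means no effect and 100 complete control, were made versus untreated controls roughly 14 to 21 days after postemergence treatment. Test compounds were formulated in a non-phytotoxic solvent mixture containing a surfactant.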

[3] = test system: large crabgrass; test: Test C postemergence large crabgrass; assay type: in vivo, Digitaria sanguinalis; conditions: 0 to 100 scale, 0 no effect, 100 complete control
Method: (§2) Compounds evaluated in this test were formulated in a non-phytotoxic solvent mixture which included a surfactant and applied to plants that were grown for various periods of time before treatment (postemergence application). A mixture of sandy loam soil and greenhouse potting mix in a 60:40 ratio was used for the postemergence test.
(§3) Plantings of these crops and weed species were adjusted to produce plants of appropriate size for the postemergence test. All plant species were grown using normal greenhouse practices. Crop and weed species include arrowleaf sida (Sida rhombifolia), barnyardgrass (Echinochloa crus-galli), cocklebur (Xanthium strumarium), common ragweed (Ambrosia elatior), corn (Zea mays), cotton (Gossypium hirsutum), eastern black nightshade (Solanum ptycanthum), fall panicum (Panicum dichotomiflorum), field bindweed (Convolvulus arvensis), giant foxtail (Setaria faberii), hairy beggarticks (Bidens pilosa), ivyleaf morningglory (Ipomoea hederacea), johnsongrass (Sorghum halepense), ladysthumb smartweed (Polygonum persicaria), lambsquarters (Chenopodium album), large crabgrass (Digitaria sanguinalis), purple nutsedge (Cyperus rotundus), redroot pigweed (Amaranthus retroflexus), soybean (Glycine max), surinam grass (Brachiaria decumbens), velvetleaf (Abutilon theophrasti) and wild poinsettia (Euphorbia heterophylla).
(§4) Treated plants and untreated controls were maintained in a greenhouse for approximately 14, to 21 days, after which all treated plants were compared to untreated controls and visually evaluated. Plant response ratings, summarized in Table C, were based upon a 0 to 100 scale where 0 was no effect and 100 was complete control. A dash response (−) means no test result.

[4] = test system: corn; test: Test C postemergence corn; assay type: in vivo, Zea mays; conditions: 0 to 100 scale, 0 no effect, 100 complete control
How it was run: as §1

[5] = test system: eastern black nightshade; test: Test C postemergence eastern black nightshade; assay type: in vivo, Solanum ptycanthum; conditions: 0 to 100 scale, 0 no effect, 100 complete control
How it was run: as §1

[6] = test system: hairy beggarticks; test: Test C postemergence hairy beggarticks; assay type: in vivo, Bidens pilosa; conditions: 0 to 100 scale, 0 no effect, 100 complete control
Method: as §2, §3, §4

[7] = test system: redroot pigweed; test: Test C postemergence redroot pigweed; assay type: in vivo, Amaranthus retroflexus; conditions: 0 to 100 scale, 0 no effect, 100 complete control
Method: as §2, §3, §4

[8] = test system: velvetleaf; test: Test C postemergence velvetleaf; assay type: in vivo, Abutilon theophrasti; conditions: 0 to 100 scale, 0 no effect, 100 complete control
How it was run: as §1

[9] = test system: wild poinsettia; test: Test C postemergence wild poinsettia; assay type: in vivo, Euphorbia heterophylla; conditions: 0 to 100 scale, 0 no effect, 100 complete control
How it was run: as §1

CCN(CC)C(=O)n1oc(=O)n(-c2ccc(OC)cc2)c1=O [Compound 1]
Plant response rating, Crabgrass ([1]; Postemergence, Rate 1000 g/ha): 5 | Plant response rating, Crabgrass ([1]; Pre-emergence, Rate 2000 g/ha): 9

Cc1ccccc1-n1c(=O)on(C(=O)N(C2=CCOCC2)C(C)C)c1=O [Compound 10]
Plant response rating, Crabgrass ([1]; Postemergence, Rate 1000 g/ha): 8 | Plant response rating, Crabgrass ([1]; Pre-emergence, Rate 2000 g/ha): 9

CC(C)Oc1cc(-n2c(=O)on(C(=O)N(c3ccc(F)cc3)C(C)C)c2=O)c(Cl)cc1Cl [Compound 43]
Plant response rating, Crabgrass ([1]; Postemergence, Rate 1000 g/ha): 0 | Plant response rating, Crabgrass ([1]; Pre-emergence, Rate 2000 g/ha): 1

CC(C)N(C(=O)n1oc(=O)n(Cc2cccs2)c1=O)c1ccc(F)cc1 [Compound 80]
Plant response rating, Cocklebur ([2]; Rate 140 g/ha): 5 | Plant response rating, Cocklebur ([2]; Rate 280 g/ha): 10 | Plant response rating, Cocklebur ([2]; Rate 560 g/ha): 50 | Plant response rating, Cocklebur ([2]; Rate 1120 g/ha): 50 | Plant response rating, Large crabgrass ([3]; Rate 140 g/ha): 0 | Plant response rating, Large crabgrass ([3]; Rate 280 g/ha): 0 | Plant response rating, Large crabgrass ([3]; Rate 560 g/ha): 10 | Plant response rating, Large crabgrass ([3]; Rate 1120 g/ha): 10 | Plant response rating, Corn ([4]; Rate 140 g/ha): 0 | Plant response rating, Corn ([4]; Rate 280 g/ha): 0 | Plant response rating, Corn ([4]; Rate 560 g/ha): 0 | Plant response rating, Corn ([4]; Rate 1120 g/ha): 0 | Plant response rating E. blacknightsh ([5]; Rate 140 g/ha): 0 | Plant response rating E. blacknightsh ([5]; Rate 280 g/ha): 5 | Plant response rating E. blacknightsh ([5]; Rate 560 g/ha): 50 | Plant response rating E. blacknightsh ([5]; Rate 1120 g/ha): 60 | Plant response rating H. beggarticks ([6]; Rate 140 g/ha): 0 | Plant response rating H. beggarticks ([6]; Rate 560 g/ha): 10 | Plant response rating H. beggarticks ([6]; Rate 1120 g/ha): 10 | Plant response rating, Redroot pigweed ([7]; Rate 280 g/ha): 0 | Plant response rating, Redroot pigweed ([7]; Rate 560 g/ha): 50 | Plant response rating, Redroot pigweed ([7]; Rate 1120 g/ha): 80 | Plant response rating, Velvetleaf ([8]; Rate 140 g/ha): 5 | Plant response rating, Velvetleaf ([8]; Rate 280 g/ha): 5 | Plant response rating, Velvetleaf ([8]; Rate 560 g/ha): 20 | Plant response rating, Velvetleaf ([8]; Rate 1120 g/ha): 20 | Plant response rating Wild poinsettia ([9]; Rate 140 g/ha): 0 | Plant response rating Wild poinsettia ([9]; Rate 280 g/ha): 0 | Plant response rating Wild poinsettia ([9]; Rate 560 g/ha): 5 | Plant response rating Wild poinsettia ([9]; Rate 1120 g/ha): 5

Source: patent US6737383B1, “Herbicidal oxadiazolidines” (priority 1999, dated 2004)
